Assay: Inhibition of rat intestinal maltase

Row | IC50 [µM] | SMILES
1 | 1.3 | OC[C@@H]1[C@@H](O)[C@H](O)C[S@+]1C[C@@H](O)[C@H](O)[C@H](O)[C@@H](O)CO [1,4-Dideoxy-1,4-{(R)-[(2S,3R,4R,5S)-2,3,4,5,6-pentahydroxyhexyl]episulfoniumylidene}-D-arabinitol chloride]
2 | 105 | OC[C@@H](O)C[S@@+]1C[C@@H](O)[C@H](O)[C@H]1CO [1,4-dideoxy-1,4-{(R)-[(2S)-2,3-dihydro-xypropyl]episulfoniumylidene}-D-arabinitol Chloride]
3 | 4.3 | OC[C@@H](O)[C@@H](O)[C@H](O)[C@H](O)C[S@@+]1C[C@@H](O)[C@H](O)[C@H]1CO [(1R,2R,3S,4S)-3,4-dihydroxy-2-(hydroxymethyl)-1-((2S,3S,4R,5R)-2,3,4,5,6-pentahydroxyhexyl)tetrahydro-1H-thiophenium chloride]
4 | 5.1 | OC[C@@H]1[C@@H](O)[C@H](O)C[S@+]1C[C@@H](O)[C@@H](O)[C@H](O)[C@@H](O)CO [(1R,2R,3S,4S)-3,4-dihydroxy-2-(hydroxymethyl)-1-((2S,3S,4R,5S)-2,3,4,5,6-pentahydroxyhexyl)tetrahydro-1H-thiophenium chloride]
5 | 4.8 | OC[C@@H]1[C@@H](O)[C@H](O)C[S@+]1C[C@@H](O)[C@@H](O)[C@H](O)[C@H](O)[C@@H](O)CO [(2R,3S,4S)-1-[(2S,3S,4R,5R,6S)-2,3,4,5,6,7-hexahydroxyheptyl]-3,4-dihydroxy-2-(hydroxymethyl)tetrahydrothiophenium (non-preferred name)]
6 | > 384 | OC[C@H](O)C[S@@+]1C[C@@H](O)[C@H](O)[C@H]1CO [Neosalaprinol]
7 | 3.2 | O=S(=O)([O-])O[C@@H]([C@H](O)[C@@H](O)CO)[C@H](O)C[S@@+]1C[C@@H](O)[C@H](O)[C@H]1CO [ponkoranol]
